The source of these data is ChEMBL document CHEMBL1201862, “PubChem BioAssay data set” (2004).

Activity calls are given as the source filed them.

One assay addresses Large T antigen (Simian virus 40, UniProt P03070). Type of assay: functional, Betapolyomavirus macacae.
For assay [1], the target named is Induced myeloid leukemia cell differentiation protein Mcl-1 (Homo sapiens, UniProt Q07820). It counts as functional.
Assay [2] has as its target SWI/SNF-related matrix-associated actin-dependent regulator of chromatin subfamily A member 2 (Homo sapiens, UniProt P51531). The assay can be described thus: Luminescence-based cell-based high throughput dose response assay to identify activators of the function of SWI/SNF related, matrix associated, actin dependent regulator of chromatin, subfamily a, member 2 (SMARCA2, BRM). It counts as functional.

The nature of assay [3]: Counterscreen for activators of the function of SWI/SNF related, matrix associated, actin dependent regulator of chromatin, subfamily a, member 2 (SMARCA2, BRM): Luminescence-based cell-based high throughput dose response assay to identify non-selective compounds using the VP16 reporter assay. It counts as functional. (In general: A counterscreen serves to expose hits that act by an unwanted route or on another target.)

In the next assay the target is T1, Aminopeptidase N (Plasmodium falciparum FcB1/Columbia, UniProt O96935).
T1 sequence (O96935 whole entry): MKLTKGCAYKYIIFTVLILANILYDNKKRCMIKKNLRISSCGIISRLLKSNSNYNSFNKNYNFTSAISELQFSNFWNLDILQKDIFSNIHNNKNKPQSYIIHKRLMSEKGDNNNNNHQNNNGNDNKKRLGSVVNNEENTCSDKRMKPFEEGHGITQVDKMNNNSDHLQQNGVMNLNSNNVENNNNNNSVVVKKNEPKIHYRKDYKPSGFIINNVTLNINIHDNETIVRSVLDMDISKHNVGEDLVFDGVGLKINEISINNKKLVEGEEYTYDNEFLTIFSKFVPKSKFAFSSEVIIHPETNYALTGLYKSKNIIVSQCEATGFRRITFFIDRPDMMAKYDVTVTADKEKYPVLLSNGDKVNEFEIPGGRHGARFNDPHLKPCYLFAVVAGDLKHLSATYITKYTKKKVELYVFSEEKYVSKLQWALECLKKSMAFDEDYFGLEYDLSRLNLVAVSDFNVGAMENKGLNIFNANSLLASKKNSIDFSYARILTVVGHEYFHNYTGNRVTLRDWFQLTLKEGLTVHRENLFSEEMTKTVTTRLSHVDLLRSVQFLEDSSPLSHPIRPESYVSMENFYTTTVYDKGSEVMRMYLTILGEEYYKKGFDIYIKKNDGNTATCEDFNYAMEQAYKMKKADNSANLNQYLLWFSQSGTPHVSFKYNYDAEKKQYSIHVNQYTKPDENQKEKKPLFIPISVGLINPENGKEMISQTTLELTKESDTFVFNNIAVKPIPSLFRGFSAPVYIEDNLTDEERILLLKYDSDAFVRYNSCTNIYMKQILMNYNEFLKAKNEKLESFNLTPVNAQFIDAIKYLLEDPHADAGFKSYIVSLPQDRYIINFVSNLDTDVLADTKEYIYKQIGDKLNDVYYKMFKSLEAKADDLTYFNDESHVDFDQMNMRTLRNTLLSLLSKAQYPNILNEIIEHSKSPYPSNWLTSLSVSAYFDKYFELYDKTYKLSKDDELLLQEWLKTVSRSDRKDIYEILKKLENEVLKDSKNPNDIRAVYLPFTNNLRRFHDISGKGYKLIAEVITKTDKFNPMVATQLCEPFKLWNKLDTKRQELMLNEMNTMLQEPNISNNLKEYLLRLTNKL
The assay can be described thus: malaria alanyl aminopeptidase activity blockers – biochemical, fluorogenic H-Leu-NHMec substrate, 1536-well (AID 1445). The arrangement: species or system Plasmodium falciparum 3D7, 3D7.

A short description of assay [4]: viability of uninfected HEp-2 cells – cell-based, HTS, cytotoxicity control for RSV inhibitor project, dose response (AID 2410). The conditions noted are these: human respiratory syncytial virus. It counts as functional.
A short description of assay [5]: cells.
Assay [6] in a line: cells. It counts as functional, cell-based.
In assay [7] the target is T2, Trace amine-associated receptor 1 (Homo sapiens, UniProt Q96RJ0).
T2 sequence (Q96RJ0 whole entry): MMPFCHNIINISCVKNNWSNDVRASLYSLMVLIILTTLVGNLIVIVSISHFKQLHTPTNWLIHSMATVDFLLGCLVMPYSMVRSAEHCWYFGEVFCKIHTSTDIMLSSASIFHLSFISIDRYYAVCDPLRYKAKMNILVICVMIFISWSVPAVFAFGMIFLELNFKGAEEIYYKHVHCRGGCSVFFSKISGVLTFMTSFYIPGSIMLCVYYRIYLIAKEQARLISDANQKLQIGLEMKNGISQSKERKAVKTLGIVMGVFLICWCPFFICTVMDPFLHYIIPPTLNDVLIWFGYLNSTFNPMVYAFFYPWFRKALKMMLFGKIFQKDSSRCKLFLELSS
The assay can be described thus: Fluorescence-based cell-based high throughput dose response assay to identify agonists of the human trace amine associated receptor 1 (TAAR1). Type of assay: functional.

For assay [8], the target named is T2, Trace amine-associated receptor 1. Description: Counterscreen for agonists of the human trace amine associated receptor 1 (hTAAR1): Fluorescence-based cell-based high throughput dose response assay to identify hTAAR1 agonist that also desensitize TAAR1 receptor response. Type of assay: functional.
Assay [9] can be described thus: cells. It counts as functional, cell-based. The source holds these as a separate data set.
A short description of assay [10]: NIH-3T3 fibroblast cytotoxicity, dose response, cytotoxicity control, cell-based, fluorescence, Alamar Blue, secondary assay (AID 2327).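 Further: NIH-3T3 mouse fibroblasts cultured with fluconazole at 8 µg/mL.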 Type of assay: functional. (Alamar Blue is a resazurin reagent that responds to reducing activity.)
Assay [11] in a line: fluconazole-exposed Candida albicans growth modulators – fluorescence, retest, confirmation (AID 2467). It counts as functional, cell-based.
In the next assay the target is T3, Estrogen receptor (Homo sapiens, UniProt P03372).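 Further: potency for inhibiting coactivator peptide recruitment to the receptor.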
T3 sequence (P03372 whole entry): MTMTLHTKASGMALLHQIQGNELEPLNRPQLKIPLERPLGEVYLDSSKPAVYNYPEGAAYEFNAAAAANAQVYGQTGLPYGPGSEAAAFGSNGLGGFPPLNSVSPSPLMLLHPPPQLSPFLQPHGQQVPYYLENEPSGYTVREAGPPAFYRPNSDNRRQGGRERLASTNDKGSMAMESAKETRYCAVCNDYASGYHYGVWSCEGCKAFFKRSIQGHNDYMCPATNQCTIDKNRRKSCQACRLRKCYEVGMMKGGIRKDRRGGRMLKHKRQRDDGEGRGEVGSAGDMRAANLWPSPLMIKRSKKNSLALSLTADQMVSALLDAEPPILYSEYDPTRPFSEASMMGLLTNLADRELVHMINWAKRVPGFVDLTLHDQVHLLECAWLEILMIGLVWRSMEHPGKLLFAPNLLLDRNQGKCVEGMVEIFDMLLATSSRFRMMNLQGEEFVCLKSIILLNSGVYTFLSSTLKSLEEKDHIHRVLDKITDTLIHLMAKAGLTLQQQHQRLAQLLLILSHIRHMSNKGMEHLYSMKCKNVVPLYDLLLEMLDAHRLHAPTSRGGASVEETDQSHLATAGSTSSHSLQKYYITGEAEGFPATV

Assay [12] has as its target T4, Fatty acid synthase (Homo sapiens, UniProt P49327). The assay can be described thus: inhibition of human FAS-TE enzyme activity – biochemical, endpoint fluorescence intensity, uHTS hits, dose response (AID 624327).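 Further: fluorescence from hydrolysis of an O-methyl fluorescein acyl ester substrate by the enzyme.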 It counts as functional.
Assay [13] has as its target T4, Fatty acid synthase. Description: inhibition of human FAS-TE enzyme activity – biochemical, kinetic fluorescence intensity, dose response (AID 624326).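 Further: rate of fluorescence rise from hydrolysis of a fluorogenic O-methyl fluorescein ester substrate.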 Type of assay: functional.
Another assay addresses Cytochrome P450 2C19 (Homo sapiens, UniProt P33261). The assay can be described thus: qHTS Assay for Inhibitors and Substrates of Cytochrome P450 2C19. [Related pubchem assays: 410 ]. Type of assay: ADME. The settings on record: read-out: Potency. In general terms: Quantitative high-throughput screening tests each substance at several concentrations.
The nature of assay [14]: luciferase reporter signal suppression in cells – H4 neuroglioma cells, luminescence, dose response (AID 1990). It counts as functional, cell-based.
The nature of assay [15]: Luminescence Cell-Based Dose Response HTS to Identify Inhibitors of 5'UTR Stem-Loop Driven Prion Protein mRNA Translation in H4 Neuroglioblastoma Cells. [Related pubchem assays: 1827 (Project Summary), 1813 (Primary HTS)]. Type of assay: functional.
A short description of assay [16]: alpha-synuclein stem-loop luciferase translation blockers – H4 neuroglioma cells, luminescence, confirmation (AID 1988). Type of assay: functional, cell-based.
For the next assay, the target named is Paired box protein Pax-8 (Homo sapiens, UniProt Q06710). The assay can be described thus: PAX8 transcriptional activity inhibition in RMG-I – RMG-I cells, luciferase, cherry-pick, dose response (AID 687027).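 Further: luciferase reporter driven by Pax8 target thyroperoxidase promoter measured by SteadyGlo luminescence.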 Type of assay: functional, cell-based.
Chain of Paired box protein Pax-8 (Q06710 whole entry): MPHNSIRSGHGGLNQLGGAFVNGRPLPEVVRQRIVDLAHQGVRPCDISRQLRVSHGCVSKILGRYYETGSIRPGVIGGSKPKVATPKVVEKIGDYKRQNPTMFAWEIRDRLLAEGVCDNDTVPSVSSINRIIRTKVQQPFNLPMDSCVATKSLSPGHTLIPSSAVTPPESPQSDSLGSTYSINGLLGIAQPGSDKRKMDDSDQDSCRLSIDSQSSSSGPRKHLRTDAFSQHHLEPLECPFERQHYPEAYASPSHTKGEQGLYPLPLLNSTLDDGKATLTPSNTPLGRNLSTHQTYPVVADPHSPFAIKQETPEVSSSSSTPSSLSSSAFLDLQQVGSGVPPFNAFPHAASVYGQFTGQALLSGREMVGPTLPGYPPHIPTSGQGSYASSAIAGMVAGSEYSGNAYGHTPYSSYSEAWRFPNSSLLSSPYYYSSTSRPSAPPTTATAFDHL

Chain of SWI/SNF-related matrix-associated actin-dependent regulator of chromatin subfamily A member 2 (P51531 whole entry): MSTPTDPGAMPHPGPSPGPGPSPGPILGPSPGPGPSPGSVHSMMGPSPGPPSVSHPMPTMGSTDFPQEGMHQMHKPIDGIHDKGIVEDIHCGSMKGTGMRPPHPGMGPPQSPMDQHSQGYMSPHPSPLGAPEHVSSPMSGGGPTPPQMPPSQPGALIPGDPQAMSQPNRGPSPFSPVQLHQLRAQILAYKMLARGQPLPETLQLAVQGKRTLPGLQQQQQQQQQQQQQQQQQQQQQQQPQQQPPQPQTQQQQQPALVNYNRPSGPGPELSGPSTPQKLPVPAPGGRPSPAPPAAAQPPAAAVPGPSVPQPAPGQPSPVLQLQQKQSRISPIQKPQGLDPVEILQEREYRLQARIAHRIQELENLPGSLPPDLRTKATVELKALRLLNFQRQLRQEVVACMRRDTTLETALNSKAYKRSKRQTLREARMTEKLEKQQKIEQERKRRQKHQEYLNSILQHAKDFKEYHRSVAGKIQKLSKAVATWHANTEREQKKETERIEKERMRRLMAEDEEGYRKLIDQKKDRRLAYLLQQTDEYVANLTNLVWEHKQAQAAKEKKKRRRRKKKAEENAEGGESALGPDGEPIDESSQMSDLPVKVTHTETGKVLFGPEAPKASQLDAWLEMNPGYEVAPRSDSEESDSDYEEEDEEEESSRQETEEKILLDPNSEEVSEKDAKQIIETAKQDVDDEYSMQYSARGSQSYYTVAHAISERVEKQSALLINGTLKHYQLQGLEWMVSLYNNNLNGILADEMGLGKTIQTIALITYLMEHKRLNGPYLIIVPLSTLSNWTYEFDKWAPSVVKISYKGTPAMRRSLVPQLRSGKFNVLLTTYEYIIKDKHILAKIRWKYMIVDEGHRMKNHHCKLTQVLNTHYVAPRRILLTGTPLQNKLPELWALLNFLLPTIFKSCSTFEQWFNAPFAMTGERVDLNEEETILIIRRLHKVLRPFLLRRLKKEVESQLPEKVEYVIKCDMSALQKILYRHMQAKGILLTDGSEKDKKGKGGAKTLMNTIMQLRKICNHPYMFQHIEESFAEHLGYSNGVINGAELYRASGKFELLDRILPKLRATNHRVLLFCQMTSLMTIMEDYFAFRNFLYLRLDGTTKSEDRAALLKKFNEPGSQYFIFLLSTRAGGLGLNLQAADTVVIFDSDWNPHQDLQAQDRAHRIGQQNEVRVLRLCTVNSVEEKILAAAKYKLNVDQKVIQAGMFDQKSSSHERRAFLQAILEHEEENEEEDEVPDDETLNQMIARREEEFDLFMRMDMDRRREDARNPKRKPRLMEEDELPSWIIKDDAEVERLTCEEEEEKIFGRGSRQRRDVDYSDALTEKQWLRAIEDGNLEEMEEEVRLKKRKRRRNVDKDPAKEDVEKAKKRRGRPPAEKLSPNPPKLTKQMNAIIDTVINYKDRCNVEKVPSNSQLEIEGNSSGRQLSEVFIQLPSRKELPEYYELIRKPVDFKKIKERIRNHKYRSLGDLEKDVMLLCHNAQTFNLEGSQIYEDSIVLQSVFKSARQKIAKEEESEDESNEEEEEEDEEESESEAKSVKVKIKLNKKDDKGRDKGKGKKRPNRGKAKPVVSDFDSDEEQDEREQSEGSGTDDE
Chain of Induced myeloid leukemia cell differentiation protein Mcl-1 (Q07820 whole entry): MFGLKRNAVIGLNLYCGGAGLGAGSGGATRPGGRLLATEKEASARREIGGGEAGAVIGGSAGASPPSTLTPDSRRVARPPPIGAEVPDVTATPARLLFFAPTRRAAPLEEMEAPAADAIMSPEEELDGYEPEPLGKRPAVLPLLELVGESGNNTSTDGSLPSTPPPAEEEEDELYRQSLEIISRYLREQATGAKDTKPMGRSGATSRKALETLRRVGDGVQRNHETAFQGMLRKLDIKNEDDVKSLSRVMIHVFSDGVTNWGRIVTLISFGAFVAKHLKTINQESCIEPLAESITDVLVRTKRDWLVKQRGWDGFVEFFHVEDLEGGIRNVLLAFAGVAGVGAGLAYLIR
T4 sequence (P49327 whole entry): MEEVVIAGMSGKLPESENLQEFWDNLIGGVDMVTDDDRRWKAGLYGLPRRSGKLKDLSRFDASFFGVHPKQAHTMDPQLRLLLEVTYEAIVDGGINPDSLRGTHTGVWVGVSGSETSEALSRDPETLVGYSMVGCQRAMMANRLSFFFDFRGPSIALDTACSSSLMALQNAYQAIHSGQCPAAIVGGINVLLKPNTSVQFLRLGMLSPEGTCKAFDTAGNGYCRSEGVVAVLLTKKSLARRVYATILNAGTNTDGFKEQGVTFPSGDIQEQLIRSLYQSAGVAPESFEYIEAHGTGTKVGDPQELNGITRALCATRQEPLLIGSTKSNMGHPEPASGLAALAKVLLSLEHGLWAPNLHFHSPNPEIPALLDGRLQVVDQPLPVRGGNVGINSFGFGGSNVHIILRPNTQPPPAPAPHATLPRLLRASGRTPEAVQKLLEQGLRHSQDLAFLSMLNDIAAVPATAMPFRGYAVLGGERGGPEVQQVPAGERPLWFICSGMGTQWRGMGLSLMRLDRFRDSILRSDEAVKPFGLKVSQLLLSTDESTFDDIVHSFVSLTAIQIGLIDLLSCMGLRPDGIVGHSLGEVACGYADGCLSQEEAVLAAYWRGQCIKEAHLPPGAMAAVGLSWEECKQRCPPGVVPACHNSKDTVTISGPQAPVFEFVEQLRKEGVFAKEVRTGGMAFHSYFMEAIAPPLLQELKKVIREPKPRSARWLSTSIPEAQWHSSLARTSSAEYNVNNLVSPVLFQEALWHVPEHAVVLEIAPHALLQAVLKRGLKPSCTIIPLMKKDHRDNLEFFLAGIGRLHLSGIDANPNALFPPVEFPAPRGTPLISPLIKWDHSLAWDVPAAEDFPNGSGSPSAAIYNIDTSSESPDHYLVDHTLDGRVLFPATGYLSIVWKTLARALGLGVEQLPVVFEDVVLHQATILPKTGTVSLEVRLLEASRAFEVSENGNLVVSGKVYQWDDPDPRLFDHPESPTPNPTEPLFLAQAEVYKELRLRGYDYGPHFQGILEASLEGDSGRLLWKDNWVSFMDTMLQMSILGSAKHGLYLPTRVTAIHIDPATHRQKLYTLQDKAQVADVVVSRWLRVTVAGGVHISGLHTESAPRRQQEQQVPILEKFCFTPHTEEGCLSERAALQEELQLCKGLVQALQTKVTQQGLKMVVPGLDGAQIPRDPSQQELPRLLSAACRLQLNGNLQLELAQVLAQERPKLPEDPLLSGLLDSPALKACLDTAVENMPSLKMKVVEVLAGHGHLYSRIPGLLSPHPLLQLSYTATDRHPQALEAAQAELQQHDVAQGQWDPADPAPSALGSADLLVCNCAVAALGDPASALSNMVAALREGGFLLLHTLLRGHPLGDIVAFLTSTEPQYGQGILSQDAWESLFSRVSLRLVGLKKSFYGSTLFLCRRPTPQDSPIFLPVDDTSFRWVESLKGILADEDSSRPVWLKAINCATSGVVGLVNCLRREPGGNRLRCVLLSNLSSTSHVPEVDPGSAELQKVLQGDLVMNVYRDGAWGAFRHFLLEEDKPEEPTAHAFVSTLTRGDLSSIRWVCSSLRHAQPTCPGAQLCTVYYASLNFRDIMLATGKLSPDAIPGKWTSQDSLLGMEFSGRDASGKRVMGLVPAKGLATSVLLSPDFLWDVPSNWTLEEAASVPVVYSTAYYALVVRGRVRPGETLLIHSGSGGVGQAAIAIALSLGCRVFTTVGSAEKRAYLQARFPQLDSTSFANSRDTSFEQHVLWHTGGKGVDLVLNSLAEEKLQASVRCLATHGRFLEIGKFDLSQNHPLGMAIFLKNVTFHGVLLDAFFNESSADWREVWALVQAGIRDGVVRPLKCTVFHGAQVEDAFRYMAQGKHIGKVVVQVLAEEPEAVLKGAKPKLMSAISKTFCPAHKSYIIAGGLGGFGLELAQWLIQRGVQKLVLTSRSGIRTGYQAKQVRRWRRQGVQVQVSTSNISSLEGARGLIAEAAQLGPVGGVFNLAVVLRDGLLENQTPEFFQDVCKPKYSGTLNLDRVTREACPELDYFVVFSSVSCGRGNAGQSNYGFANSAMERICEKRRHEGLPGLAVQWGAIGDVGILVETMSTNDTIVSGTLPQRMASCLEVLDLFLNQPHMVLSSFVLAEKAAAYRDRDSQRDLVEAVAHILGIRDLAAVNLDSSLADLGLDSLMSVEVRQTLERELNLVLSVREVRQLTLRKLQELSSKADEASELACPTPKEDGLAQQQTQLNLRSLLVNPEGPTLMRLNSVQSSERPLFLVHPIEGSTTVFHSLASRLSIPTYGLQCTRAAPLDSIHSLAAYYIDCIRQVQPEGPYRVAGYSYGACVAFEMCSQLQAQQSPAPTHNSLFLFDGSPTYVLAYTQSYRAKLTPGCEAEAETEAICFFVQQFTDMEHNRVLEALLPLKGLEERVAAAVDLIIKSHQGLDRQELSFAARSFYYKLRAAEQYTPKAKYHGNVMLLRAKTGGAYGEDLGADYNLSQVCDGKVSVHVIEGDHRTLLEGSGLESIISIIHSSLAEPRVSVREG

As for `COc1ccc(CN2C(=O)NC(=O)/C(=C/c3ccc([N+](=O)[O-])o3)C2=O)cc1`, the half-inhibitory concentration (IC50) on Large T antigen was 71.7 µM (active); in assay [1], 3.22 µM (active).
With `Nc1cccc(C2=Nc3cccc4cccc(c34)N2)c1`, in [1], the 50% inhibitory concentration (IC50) was 3 µM (active).
With `COCCN1CCN(c2c(C)c(C)nc3cc(-c4cccc(OC)c4)nn23)CC1`, the EC50 in [2] and in assay [3] was > 91.1 µM (inactive) in each case.
`O=C(NCc1ccc2c(c1)OCO2)C1CCN(S(=O)(=O)c2cccs2)CC1`: the IC50 on Aminopeptidase N is 26.7 µM (active).
Same read-out and setting: next, `O=C(CN1CCC(NC(=O)c2ccccc2)CC1)NCc1ccccc1F`: 39.3 µM (active).
In the case of `COC(=O)N/N=C(\C)c1ccccc1Br`, the EC50 in assay [2] and in assay [3] was > 91.1 µM (inactive) in each case.
Regarding `COCCN(C(=O)C(C)C)c1nnc(-c2cccc(C)c2)s1`, the CC50 in [4] was > 50 µM (active). In the assay “cells [5]”, the IC50 is 37.4 µM (active).
For `O=C(O)CCc1ccc(-c2cccs2)n1CCc1ccccc1`, the IC50 was > 29.9 µM (inactive) in the assay “cells [6]” and 5.93 µM (active) in [8]. The 50% effective concentration (EC50) in assay [7] is 0.62 µM (active); in “cells [9]”, > 29.9 µM (inactive).
Take `CNC(=S)Nc1sc2c(c1C(=O)OC)CCC2`: the IC50 in assay [1] was 1.48 µM (active).
In the case of `COC(=O)c1c(-c2ccc(C(C)(C)C)cc2)csc1NC(=O)C1C2CCC(O2)C1C(=O)O` (stereo not drawn), at Aminopeptidase N, the IC50 is 79.5 µM (active).
Turning to `CC(C)c1ccc2oc(-c3ccc(NC(=O)c4nc[nH]n4)cc3)nc2c1`, the EC50 in [10] is > 160 µM (inactive); in assay [11], 0.04 µM (active). The CC50 in assay [4] was > 50 µM (active). Moreover, the IC50 in the assay “cells [5]” was 42.2 µM (active).
Consider `O=C(N[C@H](C(=O)N1CCC[C@H]1C(=O)NCCc1ccccc1Cl)c1ccccc1)c1ccccc1`, for which the figures for the IC50 (in the assay “cells [6]”; in [8]) were > 29.9 µM (inactive) and 5.99 µM (active), respectively. Also, the EC50 in assay [7] was 3.78 µM (active); in “cells [9]”, > 29.9 µM (inactive).
Regarding `CCn1c(SCC(=O)c2ccc(CNC(C)=O)o2)nnc1-c1cccs1`, the IC50 at Estrogen receptor was 42.7 µM (not active).
`COc1ccc2cc3cc(C(=O)N4CCCCC4C)oc3nc2c1` (stereo not drawn): the half-maximal cytotoxic concentration (CC50) in assay [4] is 42.4 µM (active). The IC50 at Fatty acid synthase [12] was 2.81 µM (active); at Fatty acid synthase [13], 2.52 µM (active); in “cells [5]”, 35.1 µM (active).
Consider `CC12CC3OS(=O)OC3CC3C4C(C(OCc5ccccc5)C31)C42` (stereo not drawn), for which, at Cytochrome P450 2C19, the AC50 was 0.251 µM (inconclusive).
As to `CCOC(=O)c1c(NC(=O)CSc2nnc(CNC(=O)c3ccco3)n2C)sc2c1CCC2`, at Estrogen receptor, the IC50 is > 50 µM (not active).
For `Cc1nnn(-c2nonc2N)c1C(=O)NNC(=O)c1ccc(Cl)c(Cl)c1`, the IC50 (in “cells [6]”; in [8]) was > 29.9 µM (inactive) throughout. Besides, the EC50 in assay [7] is 5.05 µM (active); in the assay “cells [9]” it was > 29.9 µM (inactive).
As for `CC(=O)OC1CC(C)(C)N(OC(=O)c2ccc(N)cc2)C(C)(C)C1`, at Estrogen receptor, the IC50 is 26.3 µM (active).
On to `CN(C)CCN(C(=O)/C=C/c1cccs1)c1nc2c(F)cc(F)cc2s1`, for which the EC50 in assay [14] is 12.5 µM (active); in assay [15], 10.4 µM (active); in assay [16], 8.47 µM (active); in assay [2] it was > 91.1 µM (inactive); in assay [3], > 91.1 µM (inactive). Further, the AC50 on Paired box protein Pax-8 is 8.86 µM (active).
Regarding `O=C(CNCCc1ccccc1)N1CCc2ccccc2C1`, the IC50 is > 29.9 µM (inactive) in the assay “cells [6]” and 5.52 µM (active) in assay [8]. Further, the EC50 was 1.2 µM (active) in [7] and > 29.9 µM (inactive) in “cells [9]”.
As to `O=C(O)c1cccc(Nc2nc(-c3cccnc3)nc3ccccc23)c1`, on Aminopeptidase N, the IC50 was 79.2 µM (active).

As a reminder, the IC50 is the concentration needed to halve the response being measured. A word on the EC50: it is the concentration at which the effect is half-maximal. As usually defined, the CC50 is the concentration at which the toxic effect on the cells reaches its halfway point.
